Measurements: ChEMBL document CHEMBL5360532, “Current scenario of quinolone hybrids with potential antibacterial activity against ESKAPE pathogens” (Eur J Med Chem, 2023)
≈ marks a conversion by molar mass, not a printed value.

Experiments:
MDA-MB-231 = assay: Growth inhibition of human MDA-MB-231 cells measured after 48 hrs by SRB assay; format: functional
Escherichia coli [1] = assay: Potency index, ratio of ciprofloxacin MIC to test compound MIC for antimicrobial activity against Escherichia coli assessed as bacterial growth inhibition by agar cup diffusion assay; format: functional
SiHa = assay: Growth inhibition of human SiHa cells measured after 48 hrs by SRB assay; format: functional
Pseudomonas aeruginosa [2] = assay: Antibacterial activity against Pseudomonas aeruginosa ATCC43288 assessed as bacterial growth inhibition measured after 18 to 24 hrs inhibition by broth microdilution assay; format: functional; details: time 18-24 hrs
Pseudomonas aeruginosa [3] = assay: Antibacterial activity against Pseudomonas aeruginosa […] assessed as bacterial growth inhibition measured after 18 to 24 hrs inhibition by broth microdilution assay; format: functional; details: time 18-24 hrs
Escherichia coli [4] = assay: Antibacterial activity against Escherichia coli ATCC35218 assessed as bacterial growth inhibition measured after 18 to 24 hrs inhibition by broth microdilution assay; format: functional; details: time 18-24 hrs
Escherichia coli [5] = assay: Antibacterial activity against Escherichia coli ATCC 8739 assessed as bacterial growth inhibition by agar dilution method; format: functional
Enterobacter cloacae = assay: Antibacterial activity against Enterobacter cloacae PTCC 1003 assessed as bacterial growth inhibition by agar dilution method; format: functional
Klebsiella pneumoniae [6] = assay: Antibacterial activity against Klebsiella pneumoniae ATCC 10031 assessed as bacterial growth inhibition by agar dilution method; format: functional
Escherichia coli [7] = assay: Antibacterial activity against Escherichia coli ATCC 8739 assessed as bacterial growth inhibition measured after 18 to 24 hrs by two fold microdilution assay; format: functional; details: time 18-24 hrs
Klebsiella pneumoniae [8] = assay: Antibacterial activity against Klebsiella pneumoniae ATCC 13883 assessed as bacterial growth inhibition measured after 18 to 24 hrs by two fold microdilution assay; format: functional; details: time 18-24 hrs
Staphylococcus aureus [9] = assay: Antibacterial activity against Staphylococcus aureus assessed as bacterial growth inhibition by agar cup diffusion assay; format: functional
[10] = test system: Mycobacterium tuberculosis; assay: Antimycobacterial activity against pan sensitive Mycobacterium tuberculosis R2012-123 assessed as bacterial growth inhibition by agar cup diffusion assay; format: functional
[11] = test system: Mycobacterium tuberculosis; assay: Antimycobacterial activity against Mycobacterium tuberculosis H37Rv assessed as bacterial growth inhibition by agar cup diffusion assay; format: functional
Escherichia coli [12] = assay: Antibacterial activity against Escherichia coli assessed as bacterial growth inhibition by agar cup diffusion assay; format: functional
Klebsiella pneumoniae [13] = assay: Antibacterial activity against Klebsiella pneumoniae assessed as bacterial growth inhibition by agar cup diffusion assay; format: functional
Staphylococcus aureus [14] = assay: Potency index, ratio of ciprofloxacin MIC to test compound MIC for antimicrobial activity against Staphylococcus aureus assessed as bacterial growth inhibition by agar cup diffusion assay; format: functional
Escherichia coli [15] = assay: Antibacterial activity against Escherichia coli assessed as bacterial growth inhibition by broth microdilution assay; format: functional
Staphylococcus aureus [16] = assay: Potency index, ratio of norfloxacin MIC to test compound MIC for antimicrobial activity against Staphylococcus aureus assessed as bacterial growth inhibition measured after 18 to 24 hrs inhibition by broth microdilution assay; format: functional; details: time 18-24 hrs
Staphylococcus aureus [17] = assay: Antibacterial activity against Staphylococcus aureus assessed as bacterial growth inhibition by broth microdilution assay; format: functional
Klebsiella pneumoniae [18] = assay: Antibacterial activity against Klebsiella pneumoniae assessed as bacterial growth inhibition by agar streak dilution assay; format: functional
Escherichia coli [19] = assay: Antibacterial activity against Escherichia coli assessed as bacterial growth inhibition by agar streak dilution assay; format: functional
Staphylococcus aureus [20] = assay: Antibacterial activity against Staphylococcus aureus assessed as bacterial growth inhibition by agar streak dilution assay; format: functional
Staphylococcus aureus [21] = assay: Antibacterial activity against Staphylococcus aureus ATCC 25923 assessed as bacterial growth inhibition measured after 18 to 24 hrs by two fold microdilution assay; format: functional; details: time 18-24 hrs
Escherichia coli [22] = assay: Antibacterial activity against Escherichia coli ATCC 35218 assessed as bacterial growth inhibition measured after 18 to 24 hrs by two fold microdilution assay; format: functional; details: ATCC35218, time 18-24 hrs
Klebsiella pneumoniae [23] = assay: Antibacterial activity against Klebsiella pneumoniae assessed as bacterial growth inhibition measured after 18 to 24 hrs by two fold microdilution assay; format: functional; details: time 18-24 hrs
Escherichia coli [24] = assay: Antibacterial activity against Escherichia coli clinical isolate assessed as zone of inhibition at 50 mg/ml by agar diffusion assay; format: functional; details: read-out: IZ
Staphylococcus aureus [25] = assay: Antibacterial activity against Staphylococcus aureus clinical isolate assessed as zone of inhibition at 50 mg/ml by agar diffusion assay; format: functional; details: read-out: IZ
Escherichia coli [26] = assay: Antibacterial activity against Escherichia coli ATCC 25922 assessed as zone of inhibition at 50 mg/ml by agar diffusion assay; format: functional; details: read-out: IZ
Staphylococcus aureus [27] = assay: Antibacterial activity against Staphylococcus aureus ATCC 25923 assessed as zone of inhibition at 50 mg/ml by agar diffusion assay; format: functional; details: read-out: IZ
Candida albicans = assay: Antifungal activity against Candida albicans assessed as fungal growth inhibition by agar well diffusion assay; format: functional
Staphylococcus aureus [28] = assay: Antibacterial activity against Staphylococcus aureus assessed as bacterial growth inhibition by agar well diffusion assay; format: functional, organism-based
Escherichia coli [29] = assay: Antibacterial activity against Escherichia coli assessed as bacterial growth inhibition by agar well diffusion assay; format: functional, organism-based
Aspergillus niger [30] = assay: Antifungal activity against Aspergillus niger assessed as fungal growth inhibition by agar well diffusion assay; format: functional
Pseudomonas aeruginosa [31] = assay: Antibacterial activity against Pseudomonas aeruginosa assessed as bacterial growth inhibition by agar well diffusion assay; format: functional, organism-based
Staphylococcus aureus [32] = assay: Antibacterial activity against Staphylococcus aureus ATCC 25923 assessed as bacterial growth inhibition measured after 18 to 24 hrs by agar dilution assay; format: functional; details: time 18-24 hrs
Staphylococcus aureus [33] = assay: Potency index, ratio of ciprofloxacin MIC to test compound MIC for antibacterial activity against Staphylococcus aureus ATCC 25923 assessed as bacterial growth inhibition measured after 18 to 24 hrs by agar dilution assay; format: functional; details: time 18-24 hrs
Aspergillus fumigatus = assay: Antifungal activity against Aspergillus fumigatus assessed as fungal growth inhibition by agar cup diffusion assay; format: functional
Aspergillus niger [34] = assay: Antifungal activity against Aspergillus niger assessed as fungal growth inhibition by agar cup diffusion assay; format: functional
Pseudomonas aeruginosa [35] = assay: Antibacterial activity against Pseudomonas aeruginosa assessed as bacterial growth inhibition by agar cup diffusion assay; format: functional

## O=C(O)c1cn(C2CC2)c2cc(N3CCN(C(=O)CCSc4nnnn4Cc4ccccc4)CC3)c(F)cc2c1=O
MDA-MB-231
  GI50: 80 nM
Escherichia coli [1]
  Ratio: 2
SiHa
  GI50: 70 nM

## O=C(O)c1cn(C2CC2)c2cc(N3CCN(Cn4nc(CN5CCN(c6ccc([N+](=O)[O-])cc6)CC5)oc4=S)CC3)c(F)cc2c1=O
Pseudomonas aeruginosa [2]
  MIC: 0.03 µg/mL (≈ 0.0451 µM)
Pseudomonas aeruginosa [3]
  MIC: 0.03 µg/mL (≈ 0.0451 µM)
Escherichia coli [4]
  MIC: 0.03 µg/mL (≈ 0.0451 µM)

## CC(=O)C(C(C)=O)C(=O)c1cn(C2CC2)c2cc(N3CCN(/N=N/c4nc(C)cc(C)n4)CC3)c(F)cc2c1=O
Escherichia coli [5]
  MIC: 0.015 µg/mL (≈ 0.0274 µM)
Enterobacter cloacae
  MIC: 0.015 µg/mL (≈ 0.0274 µM)
Klebsiella pneumoniae [6]
  MIC: 0.015 µg/mL (≈ 0.0274 µM)

## O=C(O)c1cn(C2CC2)c2cc(N3CCN(Cn4nc(CN5CCN(c6ccccc6)CC5)n(-c5ccccc5)c4=S)CC3)c(F)cc2c1=O
Escherichia coli [7]
  MIC: 0.125 µg/mL (≈ 0.18 µM)
Klebsiella pneumoniae [8]
  MIC: 0.125 µg/mL (≈ 0.18 µM)

## CCn1c(CN2CCN(c3ccccc3)CC2)nn(CN2CCN(c3cc4c(cc3F)c(=O)c(C(=O)O)cn4C3CC3)CC2)c1=S
Escherichia coli [7]
  MIC: 0.125 µg/mL (≈ 0.193 µM)
Klebsiella pneumoniae [8]
  MIC: 0.125 µg/mL (≈ 0.193 µM)

## C=CCn1c(SCC(=O)N2CCN(c3cc4c(cc3F)c(=O)c(C(=O)O)cn4C3CC3)CC2)nnc1-c1ccccc1
Staphylococcus aureus [9]
  MIC: 1.7 µg/mL (≈ 2.89 µM)
[10]
  MIC: 4 µg/mL (≈ 6.8 µM)
[11]
  MIC: 4 µg/mL (≈ 6.8 µM)
Escherichia coli [12]
  MIC: 1.7 µg/mL (≈ 2.89 µM)
Klebsiella pneumoniae [13]
  MIC: 1.7 µg/mL (≈ 2.89 µM)

## O=C(O)c1cn(C2CC2)c2cc(N3CCN(Cc4nnc(-c5cccc(O)c5)o4)CC3)c(F)cc2c1=O
Staphylococcus aureus [14]
  Ratio: >=4
Escherichia coli [15]
  MIC: ≤ 0.125 µg/mL
Staphylococcus aureus [16]
  Ratio: >=4
Staphylococcus aureus [9]
  MIC: 0.3 µg/mL (≈ 0.593 µM)
Staphylococcus aureus [17]
  MIC: 0.125 µg/mL (≈ 0.247 µM)

## COc1c(N2CCN([S+]([O-])c3ccc(N)c(C)c3)C(C)C2)c(F)c(C)c2c(=O)c(C(=O)O)cn(C3CC3)c12 (configuration not stated)
Klebsiella pneumoniae [18]
  MIC: 0.9 µg/mL (≈ 1.66 µM)
Escherichia coli [19]
  MIC: 0.9 µg/mL (≈ 1.66 µM)
Staphylococcus aureus [20]
  MIC: 0.9 µg/mL (≈ 1.66 µM)

## CNc1ccc([S+]([O-])N2CCN(c3c(F)c(C)c4c(=O)c(C(=O)O)cn(C5CC5)c4c3OC)CC2C)cc1C (configuration not stated)
Klebsiella pneumoniae [18]
  MIC: 0.9 µg/mL (≈ 1.62 µM)
Escherichia coli [19]
  MIC: 0.9 µg/mL (≈ 1.62 µM)
Staphylococcus aureus [20]
  MIC: 0.9 µg/mL (≈ 1.62 µM)

## O=C(O)c1cn(C2CC2)c2cc(N3CCN(Cn4nc(CN5CCN(c6ccc(F)cc6)CC5)n(-c5ccccc5)c4=O)CC3)c(F)cc2c1=O
Staphylococcus aureus [21]
  MIC: < 0.24 µg/mL
Escherichia coli [22]
  MIC: < 0.24 µg/mL
Klebsiella pneumoniae [23]
  MIC: < 0.24 µg/mL

## COC(=O)c1cn(C2CC2)c2cc(N3CCN(C(=O)c4nnn(-c5ccc(SC)cc5)c4N)CC3)c(F)cc2c1=O
Escherichia coli [24]
  zone of inhibition at 50000 µg/mL: 26.3 mm
Staphylococcus aureus [25]
  zone of inhibition at 50000 µg/mL: 26.3 mm
Escherichia coli [26]
  zone of inhibition at 50000 µg/mL: 26.3 mm
Staphylococcus aureus [27]
  zone of inhibition at 50000 µg/mL: 26.3 mm

## C#CCSc1nnc(-c2cn(CC)c3cc(N4CCN(C(=O)C(O)(CC(=O)O)CC(=O)O)CC4)c(F)cc3c2=O)o1
Candida albicans
  MIC: 2.18 µg/mL (≈ 3.71 µM)
Staphylococcus aureus [28]
  MIC: 1.61 µg/mL (≈ 2.74 µM)
Escherichia coli [29]
  MIC: 1.61 µg/mL (≈ 2.74 µM)
Aspergillus niger [30]
  MIC: 1.47 µg/mL (≈ 2.5 µM)
Pseudomonas aeruginosa [31]
  MIC: 1.61 µg/mL (≈ 2.74 µM)

## COC(=O)c1cn(C2CC2)c2cc(N3CCN(Cc4cn(-c5ccc(C(C)=O)cc5)nn4)CC3)c(F)cc2c1=O
Staphylococcus aureus [32]
  MIC: 3.12 µg/mL (≈ 5.73 µM)
Staphylococcus aureus [33]
  Ratio: 2

## Nc1ccc(-c2nnc(-c3cn(C4CC4)c4cc(N5CCNCC5)c(F)cc4c3=O)o2)c(O)c1
Aspergillus fumigatus
  MIC: 9.8 µg/mL (≈ 21.2 µM)
Aspergillus niger [34]
  MIC: 9.8 µg/mL (≈ 21.2 µM)
Pseudomonas aeruginosa [35]
  MIC: 0.3 µg/mL (≈ 0.649 µM)
Escherichia coli [12]
  MIC: 0.3 µg/mL (≈ 0.649 µM)
